Data published in patent US7371766B2, “Curcumin analogs with anti-tumor and anti-angiogenic properties” (Emory University, priority 1999, dated 2008).
Where two headings read alike, the source gives them in different places.

Experiments:
HCT-116 = experiment: cells; details: Homo sapiens, HCT-116, 48 h
SF-295 = experiment: cells; details: Homo sapiens, SF-295, 48 h
MOLT-4 = experiment: cells; details: Homo sapiens, MOLT-4, 48 h
OVCAR-3 = experiment: cells; details: Homo sapiens, OVCAR-3, 48 h
SK-MEL-2 = experiment: cells; details: Homo sapiens, SK-MEL-2, 48 h
HCC-2998 = experiment: cells; details: Homo sapiens, HCC 2998, 48 h
OVCAR-8 = experiment: cells; details: Homo sapiens, OVCAR-8, 48 h
SR = experiment: cells; details: Homo sapiens, 48 h
NCI-H23 = experiment: cells; details: Homo sapiens, NCI-H23, 48 h
PC-3 = experiment: cells; details: Homo sapiens, PC-3, 48 h
[1] = test system: Sixty human tumor cell lines; details: NCI Anti-Tumor Screen, several cell types
MDA-N = experiment: cells; details: Homo sapiens, 48 h
MDA-MB-435 = experiment: cells; details: Homo sapiens, MDA-MB-435, 48 h
HT29 = experiment: cells; details: Homo sapiens, HT-29, 48 h
OVCAR-5 = experiment: cells; details: Homo sapiens, OVCAR-5, 48 h
HCT-15 = experiment: cells; details: Homo sapiens, HCT-15, 48 h
TK-10 = experiment: cells; details: Homo sapiens, TK-10, 48 h
NCI-H522 = experiment: cells; details: Homo sapiens, NCI-H522, 48 h
SNB-19 = experiment: cells; details: Homo sapiens, SNB-19, 48 h
UACC-257 = experiment: cells; details: Homo sapiens, UACC-257, 48 h
MALME-3M = experiment: cells; details: Homo sapiens, 48 h
RPMI-7951 human melanoma = experiment: Neutral Red Assay, cell viability, RPMI-7951; details: Homo sapiens
Protocol: RPMI-795 1, MDA-MB-231 and MDA-MB-435 cell lines were cultured in MEM-alpha medium (GIBCO-BRL, Long Island, N.Y.) containing 10% fetal bovine serum (RPMI-7951, MDA-MB-231) or 5% FBS (MDA-MB-435) at 37° C. and under 5% CO2/95% air. […] The cells were cultured in 48 well plates in all of the experiments described.
Neutral Red Assay was utilized to determine the effect of the compounds of the present invention on cell viability. Neutral Red was purchased from GIBCO-BRL (Long Island, N.Y.). Cells were plated at a concentration of 20,000 cells/well and cultured overnight. Compounds or vehicle (DMSO 0.1%) were then added and the plates were incubated for 72 hours. Supernatant from each well was either aspirated or collected and media containing Neutral Red (GIBCO-BRL, Long Island, N.Y.) at a concentration of 15 μl/ml was then added to each well. The plates were then incubated at 37° C. for 30 minutes. Next, the cells were washed with twice with PBS and alcoholic-HCl (0.5N—HCl/35% ethanol) was added to each well. The plates were then placed on a plate shaker until all residues were solubilized (pink color). The solubilized mixtures were then transferred to a 96 well plate and the absorbances were read on a micro-test plate reader at a wavelength of 570 nm.
Cell viability was determined by Neutral Red Assay.

SK-OV-3 = experiment: cells; details: Homo sapiens, SK-OV-3, 48 h
CCRF-CEM = experiment: cells; details: Homo sapiens, 48 h
SNB-75 = experiment: cells; details: Homo sapiens, SNB-75, 48 h
DU-145 = experiment: cells; details: Homo sapiens, DU-145, 48 h
BT-549 = experiment: cells; details: Homo sapiens, BT-549, 48 h
HOP-62 = experiment: cells; details: Homo sapiens, HOP-62, 48 h
A549 = experiment: cells; details: Homo sapiens, A549, 48 h
[2] = read-out: Median Growth Inhibitory Concentration (GI50)
[3] = read-out: Median Lethal Concentration (LC50)
[4] = RPMI-7951, 72 h, read-out: Neutral Red Uptake, %
[5] = RPMI-7951, read-out: Cell Viability

**Q.** What does the source list for `O=C(C=Cc1ccc(F)cc1F)C=Cc1ccc(F)cc1F` [EF9, 1,5-Bis(2,4-difluorophenyl)penta-1,4-dien-3-one]?
**A.** GI50 (HCT-116; [2]): 1.9 µM; CC50 (HCT-116; [3]): 7.7 µM; GI50 (SF-295; [2]): 14.2 µM; CC50 (SF-295; [3]): 58.8 µM; GI50 (MOLT-4; [2]): 9.3 µM; CC50 (MOLT-4; [3]): > 100 µM; GI50 (OVCAR-3; [2]): 14.1 µM; CC50 (OVCAR-3; [3]): 52.1 µM; GI50 (SK-MEL-2; [2]): 14.5 µM; CC50 (SK-MEL-2; [3]): 58.9 µM; GI50 (HCC-2998; [2]): 3.3 µM; CC50 (HCC-2998; [3]): 32.2 µM; GI50 (OVCAR-8; [2]): 3.4 µM; CC50 (OVCAR-8; [3]): 85.3 µM; GI50 (SR; [2]): 1.2 µM; CC50 (SR; [3]): 77.9 µM; GI50 (NCI-H23; [2]): 12.3 µM; CC50 (NCI-H23; [3]): 62.3 µM; GI50 (PC-3; [2]): 4.8 µM; CC50 (PC-3; [3]): 41 µM; LC50 compared with CISPLATIN, in words [1]: lower LC50 than the chemotherapeutic agent CISPLATIN for several cell types; GI50 (MDA-N; [2]): 2.9 µM; CC50 (MDA-N; [3]): 33.2 µM; GI50 (MDA-MB-435; [2]): 3.2 µM; CC50 (MDA-MB-435; [3]): 35.9 µM; GI50 (HT29; [2]): 4.1 µM; CC50 (HT29; [3]): 41.9 µM; GI50 (OVCAR-5; [2]): 20 µM; CC50 (OVCAR-5; [3]): 63.3 µM; GI50 (HCT-15; [2]): 4.9 µM; CC50 (HCT-15; [3]): 64.7 µM; GI50 (TK-10; [2]): 17.9 µM; CC50 (TK-10; [3]): 56.5 µM; GI50 (NCI-H522; [2]): 13.4 µM; CC50 (NCI-H522; [3]): 57.1 µM; GI50 (SNB-19; [2]): 14.7 µM; CC50 (SNB-19; [3]): 58.8 µM; GI50 (UACC-257; [2]): 16 µM; CC50 (UACC-257; [3]): 62.1 µM; GI50 (MALME-3M; [2]): 17.8 µM; CC50 (MALME-3M; [3]): 73.4 µM; viability at 5 µM (RPMI-7951 human melanoma; [4]): 88%; viability at 20 µM (RPMI-7951 human melanoma; [4]): 11%; viability at 5 µM (RPMI-7951 human melanoma; [5]): 92%; viability at 20 µM (RPMI-7951 human melanoma; [5]): 70%; GI50 (SK-OV-3; [2]): 15.4 µM; CC50 (SK-OV-3; [3]): 53.7 µM; GI50 (CCRF-CEM; [2]): 3.1 µM; CC50 (CCRF-CEM; [3]): > 100 µM; GI50 (SNB-75; [2]): 11.2 µM; CC50 (SNB-75; [3]): 48.8 µM; GI50 (DU-145; [2]): 2.1 µM; CC50 (DU-145; [3]): 29 µM; GI50 (BT-549; [2]): 6.5 µM; CC50 (BT-549; [3]): 47.3 µM; GI50 (HOP-62; [2]): 16.6 µM; CC50 (HOP-62; [3]): 60.7 µM; GI50 (A549; [2]): 8.9 µM; CC50 (A549; [3]): 71 µM
